The source of these data is PMC10616807, “3′-O-β-Glucosyl-4′,5′-didehydro-5′-deoxyadenosine Is a Natural Product of the Nucleocidin Producers Streptomyces virens and Streptomyces calvus” (Journal of Natural Products, 2023).

The subject of the test is T1, NucGT.
T1 construct: glucosyltransferase enzyme
The test can be described thus: HPLC product assay at […] nm, initial rates, Michaelis-Menten fit. Format: biochemical, Streptomyces calvus. Conditions: 17.7 mM UDP-glucose (saturating), 100 mM MgCl2, 50 mM Tris-HCl pH 7.8, 37 °C.

As for `Nc1ncnc2c1ncn2[C@@H]1O[C@H](CO)[C@@H](O)[C@H]1O` [adenosine], the Km (usually the substrate concentration at which the rate is half of its maximum) is 487 ± 53 µM. `C=C1O[C@@H](n2cnc3c(N)ncnc32)[C@H](O)[C@@H]1O` [compound 12, 4′,5′-didehydro-5′-deoxyadenosine]: the Km stood at 365 ± 6 µM.
